Read-outs that look alike come from different tables or passages of the source.
Columns and labels:
[1] = target: T1, alpha 2C receptor (Homo sapiens, UniProt P18825); test: Receptor Selection and Amplification technology (RSAT) assay, alpha 2C; format: cell-based; conditions: for Alpha 2C intrinsic activity (relative efficacy): RSAT, number in parentheses, ratio of maximal effect to that of standard full agonist brimonidine (UK14304)
T1 construct: expressed in transfected cells; host or cells: NIH-3T3 cells
T1 sequence (P18825 1-462): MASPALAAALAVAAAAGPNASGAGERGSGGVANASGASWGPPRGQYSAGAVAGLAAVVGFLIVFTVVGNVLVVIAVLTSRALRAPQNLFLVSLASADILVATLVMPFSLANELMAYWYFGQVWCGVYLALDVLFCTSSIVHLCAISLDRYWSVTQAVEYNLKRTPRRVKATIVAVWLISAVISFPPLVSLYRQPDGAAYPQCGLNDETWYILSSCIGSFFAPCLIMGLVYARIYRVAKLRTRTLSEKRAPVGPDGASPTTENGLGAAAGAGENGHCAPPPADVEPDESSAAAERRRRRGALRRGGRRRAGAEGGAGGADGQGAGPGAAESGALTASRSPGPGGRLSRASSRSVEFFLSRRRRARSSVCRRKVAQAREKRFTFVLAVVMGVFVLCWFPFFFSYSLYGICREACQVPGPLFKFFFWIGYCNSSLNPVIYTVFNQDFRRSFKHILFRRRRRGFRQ
Excerpt: The compounds disclosed herein are agonists of alpha 2B/2C adrenergic receptors. […] 76, pp. 308-311 (incorporated herein by reference) and is also described below. Another reference pertinent to this assay is Conklin et al. (1993) Nature 363: 274-6, also incorporated herein by reference.
(§1) The RSAT assay measures a receptor-mediated loss of contact inhibition that results in selective proliferation of receptor-containing cells in a mixed population of confluent cells. The increase in cell number is assessed with an appropriate transfected marker gene such as β-galactosidase, the activity of which can be easily measured in a 96-well format. Receptors that activate the G protein, Gq, elicit this response. Alpha 2 receptors, which normally couple to Gi, activate the RSAT response when coexpressed with a hybrid Gq protein that has a G; receptor recognition domain, called Gq/i5.
(§2) NIH-3T3 cells are plated at a density of 2×10^6 cells in 15 cm dishes and maintained in Dulbecco's modified Eagle's medium supplemented with 10% calf serum. One day later, cells are cotransfected by calcium phosphate precipitation with mammalian expression plasmids encoding p-SV-β-galactosidase (5-10 μg), receptor (1-2 μg) and G protein (1-2 μg). 40 μg salmon sperm DNA may also be included in the transfection mixture. Fresh media is added on the following day and 1-2 days later, cells are harvested and frozen in 50 assay aliquots. Cells are thawed and 100 μl added to 100 μl aliquots of various concentrations of drugs in triplicate in 96-well dishes. Incubations continue 72-96 hr at 37° C. After washing with phosphate-buffered saline, .E-backward.-galactosidase enzyme activity is determined by adding 200 μl of the chromogenic substrate (consisting of 3.5 mM o-nitrophenyl-beta-D-galactopyranoside and 0.5% nonidet P-40 in phosphate buffered saline), incubating overnight at 30° C. and measuring optical density at 420 nm. The absorbance is a measure of enzyme activity, which depends on cell number and reflects a receptor-mediated cell proliferation. The efficacy or intrinsic activity is calculated as a ratio of the maximal effect of the drug to the maximal effect of a standard full agonist for each receptor subtype. Brimonidine, also called UK14304, the chemical structure of which is shown below, is used as the standard agonist for the alpha 2A, alpha 2B and alpha 2C receptors.

[2] = target: T2, alpha 2B receptor (Homo sapiens, UniProt P18089); test: Receptor Selection and Amplification technology (RSAT) assay, alpha 2B; format: cell-based; conditions: for Alpha 2B intrinsic activity (relative efficacy): RSAT, number in parentheses, ratio of maximal effect to that of standard full agonist brimonidine (UK14304)
T2 construct: expressed in transfected cells; host or cells: NIH-3T3 cells
T2 sequence (P18089 1-450): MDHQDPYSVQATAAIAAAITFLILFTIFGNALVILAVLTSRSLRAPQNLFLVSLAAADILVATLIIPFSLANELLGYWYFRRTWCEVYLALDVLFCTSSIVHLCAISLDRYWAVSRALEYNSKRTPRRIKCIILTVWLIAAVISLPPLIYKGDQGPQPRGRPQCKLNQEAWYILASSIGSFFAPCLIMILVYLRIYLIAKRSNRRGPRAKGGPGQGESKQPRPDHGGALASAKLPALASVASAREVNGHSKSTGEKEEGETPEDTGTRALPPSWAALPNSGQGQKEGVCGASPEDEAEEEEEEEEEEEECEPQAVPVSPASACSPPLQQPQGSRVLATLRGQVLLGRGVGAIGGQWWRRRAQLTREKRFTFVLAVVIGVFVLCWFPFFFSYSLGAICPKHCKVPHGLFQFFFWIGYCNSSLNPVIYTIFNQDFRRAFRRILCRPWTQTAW
Procedure: as §1, §2

[3] = RSAT in transfected NIH-3T3 cells, number outside parentheses, read-out: Alpha 2B potency (EC50)
[4] = RSAT in transfected NIH-3T3 cells, number outside parentheses, read-out: Alpha 2C potency (EC50)

Fc1cccc(C(c2ccccc2)c2c[nH]cn2)c1F (stereo not shown)
Alpha 2C intrinsic activity (relative efficacy) [1]: No Data (.22)
EC50 [2, 3]: 62 nM
Alpha 2B intrinsic activity (relative efficacy) [2]: 1.10

Cc1c(Cl)cccc1C(c1ccccc1)c1c[nH]cn1 (stereo not shown)
EC50 [1, 4]: 411 nM
Alpha 2C intrinsic activity (relative efficacy) [1]: .35
EC50 [2, 3]: 18 nM
Alpha 2B intrinsic activity (relative efficacy) [2]: 1.35

Cc1cccc(C(c2ccccc2)c2c[nH]cn2)c1C (stereo not shown)
EC50 [1, 4]: 91 nM
Alpha 2C intrinsic activity (relative efficacy) [1]: 1.02
EC50 [2, 3]: 1.8 nM
Alpha 2B intrinsic activity (relative efficacy) [2]: 1.23

Fc1c(C(c2ccccc2)c2c[nH]cn2)cccc1C(F)(F)F (stereo not shown)
Alpha 2C intrinsic activity (relative efficacy) [1]: No Data (.12)
EC50 [2, 3]: 21 nM
Alpha 2B intrinsic activity (relative efficacy) [2]: .89

Fc1cccc(C(c2ccccc2)c2c[nH]cn2)c1 (stereo not shown)
Alpha 2C intrinsic activity (relative efficacy) [1]: No Data (.15)
EC50 [2]: 332 nM
Alpha 2B intrinsic activity (relative efficacy) [2]: 1.00

Cc1ccccc1C(c1ccccc1)c1c[nH]cn1 (stereo not shown)
EC50 [1]: 1900 nM
Alpha 2C intrinsic activity (relative efficacy) [1]: .64
EC50 [2]: 55 nM
Alpha 2B intrinsic activity (relative efficacy) [2]: .99

Fc1c(Cl)cccc1C(c1ccccc1)c1c[nH]cn1 (stereo not shown)
Alpha 2C intrinsic activity (relative efficacy) [1]: No Data (.21)
EC50 [2, 3]: 44 nM
Alpha 2B intrinsic activity (relative efficacy) [2]: .91

Clc1cccc(C(c2ccccc2)c2c[nH]cn2)c1Cl (stereo not shown)
EC50 [1, 4]: 332 nM
Alpha 2C intrinsic activity (relative efficacy) [1]: .40
EC50 [2, 3]: 6.9 nM
Alpha 2B intrinsic activity (relative efficacy) [2]: 1.19

Source: US8227499B2, “Substituted-aryl-(imidazole)-methyl)-phenyl compounds as subtype selective modulators of alpha 2B and/or alpha 2C adrenergic receptors” (Allergan, Inc., priority 2008, dated 2012)
